Measurements: patent US20180221874A1, “FLUIDIC DEVICES INC[…] TISSUE AND METHODS OF USE” (President and Fellows of Harvard College, priority 2015, published 2018)
Entries after “also recorded” stand apart in the source; their conditions may differ.

Tested on: functional muscle tissue of human cardiac tissue
Experiment: Cardiac field potentials of functional muscle tissue measured with flexible electrode array
Assay type: cell-based
Conditions: escalating doses of isoproterenol; cardiac field potentials detected by microelectrode array; FIG. 27, 28
Source text: A cell seeding well attached to a second portion of a fluidic device including a gelatin flexible substrate with a micropatterned top surface on a COC base was used to culture a functional muscle tissue of human cardiac tissue on the flexible substrate and to separately evaluate the functional muscle tissue prior to assembling the rest of the fluidic device. FIG. 26 is an image of the cell seeding well 400 attached to the second portion 192 of the fluidic device. The top of the cell seeding well 400 was wrapped in a gas permeable membrane. […] The cultured functional muscle tissue on the flexible substrate was exposed to escalating doses of isoproterenol, a beta-adrenergic agonist, and resulting cardiac field potentials were measured using the flexible electrode array. FIG. 27 is a graph of the measured cardiac field potentials 610, 620, […], 640, 650, 660, 670 as a function of time detected by the microelectrode array for various concentrations of isoproterenol. FIG. 28 is a graph of the measured QT interval shortening as a function of the dose of isoproterenol. […] Thus, the modular nature of the fluidic device enabled the flexible substrate on the second portion of the device to be easily seeded and cultured to form the functional muscle tissue, and enabled the functional muscle tissue to be evaluated prior to assembly of the full fluidic device.

SMILES: CC(C)NCC(O)c1ccc(O)c(O)c1 (stereo not shown) [isoproterenol]
- QT interval as a function of isoproterenol dose: shortening QT interval; also recorded: QT shortening with increased doses
